In a melting point compilation (Tetko et al.; mined from patent text by program, amines drawn as free bases though some values may be those of a salt):

First: Cc1cccc(-n2c(-c3sc(NC(=O)c4ccccc4)nc3-c3ccccc3)nc3ccccc3c2=O)c1
Second: O=c1ccn(-c2ccccc2Cl)nc1-c1ccnn1-c1ccccc1
The melting point of the first is higher: over 275 °C for the first, 138 to 139 °C for the second.

First: CC(C)(C)OC(=O)NCCC(=O)N[C@@H](CC(=O)OCc1ccccc1)C(=O)NCCc1ccc(OCC(=O)OCc2ccccc2)cc1
Second: CC(C)(C)NC(=O)N(CCc1ccccc1)CC(O)C(Cc1ccccc1)NC(=O)C(CC(N)=O)NC(=O)c1ccc2ccccc2n1 (stereo unspecified)
The melting point of the first is lower: 123 to 124 °C for the first, 139 to 140 °C for the second.

First: CCOC(=O)N(c1ccc(Cl)cc1)c1ccccc1-n1nc(C(=O)O)nc1CCl
Second: CCOC(=O)Cc1c(-c2ccc(Cl)cc2)nn2cccnc12
The melting point of the first is lower: 190 to 192 °C for the first, 221 to 225 °C for the second.

Compared with `N#Cc1cnc2cc(-c3ccc(CN4CCOCC4)cn3)ccc2c1Nc1ccc(Oc2ccccc2)cc1`, `O=C1c2ccccc2C(=O)N1CC1CN(Cc2ccccc2)CCN1Cc1ccccc1` (stereo unspecified) is lower in melting point: 219 to 221 °C for the first, 124 °C for the second.

Compared with `CC(=O)C=Cc1ccc2c(c1)OCO2`, `CC(=O)C=Cc1ccc(OCc2ccccc2)cc1` is lower in melting point: 108 to 109 °C for the first, 106 to 107 °C for the second.

Compared with `O=C(Oc1cc(F)ccc1F)c1cc2ccccc2oc1=O`, `O=C(O)COc1ccc2c(=O)c3ccccc3oc2c1Cl` is higher in melting point: 134 to 137 °C for the first, 280 to 281 °C for the second.

First: CCn1c(C)nc2cc(C(F)(F)F)cc(N)c21
Second: Nc1cc(C(F)(F)F)c([N+](=O)[O-])cc1C(=O)O
The melting point of the first is lower: 144 to 145 °C for the first, 237 °C for the second.

First: COc1ccc(C=Cc2cccc(C(=O)O)c2)cc1OC1CCCC1
Second: CCOC(=O)C=Cc1ccc(OC2CCCCO2)cc1 (stereo unspecified)
The melting point of the first is higher: 93 to 94 °C for the first, 52 to 53 °C for the second.

First: COc1cccc(NC(=O)NCc2cccc3c2CN(C2CCC(=O)NC2=O)C3=O)c1 (stereo unspecified)
Second: COC(=O)CN1CCc2[nH]c(=O)n3nc(-c4ccccc4F)nc3c2C1
The melting point of the first is higher: 340 to 342 °C for the first, 265 to 266 °C for the second.

First: Cc1nc2ccc3c(c2nc1C)OC(CN1CC=C(c2c[nH]c4ccccc24)CC1)CO3 (stereo unspecified)
Second: CCOC(=O)Cn1c(-c2ccc3c(c2)OCCO3)nc2ccccc21
The melting point of the first is higher: 153 to 155 °C for the first, 113 to 114 °C for the second.

First: c1ccc(N2CCN(CC[C@H]3CC[C@H](c4c[nH]c5ccccc54)CC3)CC2)nc1
Second: c1ccc(CN2CCN(Cc3cc4ccccc4[nH]3)CC2)cc1
The melting point of the first is lower: 147 to 148 °C for the first, 157 to 159 °C for the second.

First: Nc1nc2ccc(CCN3CCC(Cc4ccccc4)CC3)cc2s1
Second: O=C1NC(=O)C(Cc2ccccc2)C(=O)N1
The melting point of the first is lower: 152 to 153 °C for the first, 207 to 209 °C for the second.

Compared with `Cc1c(Cl)cc(NC(=O)C(=O)Nc2cc(Cl)c(C)c(Cl)c2O)c(O)c1Cl`, `CC(C)C(=O)N[C@H]1C[C@H](C(=O)O)Nc2cc(Cl)cc(Cl)c21` (relative stereo) is lower in melting point: 330 °C for the first, 197 to 198 °C for the second.

First: COCCN1CCC(O)(c2cccc(Cl)c2Cl)CC1
Second: O=c1ccc2ccc(OCCCN3CCCN(c4cccc(Cl)c4Cl)CC3)cc2[nH]1
The melting point of the first is higher: 135 to 137 °C for the first, 117 to 118 °C for the second.

Compared with `CC(=O)c1cc(N)c(Cl)cc1Cl`, `O=C(O)COc1c(Cl)cc(F)cc1Cl` is higher in melting point: 74 °C for the first, 155 to 158 °C for the second.

First: O=C(N[C@H]1CC[C@@H](O)C1)OCc1ccccc1 (relative stereo)
Second: CCCCCCCCCCCCCCCCO[C@@H]1CCCO[C@H]1COCc1ccccc1 (relative stereo)
The melting point of the first is higher: 62 to 63 °C for the first, 28.5 to 29.5 °C for the second.

Compared with `COc1cc(OC)c(C(C)=O)c(O)c1C`, `COc1cc(OC)c(C=O)cc1I` is higher in melting point: 143 to 144 °C for the first, 170 to 172 °C for the second.

First: COc1cc(Nc2c(C#N)cnc3cc(I)c(OC)cc23)c(Cl)cc1Cl
Second: COC(=O)C(=O)c1ccc(OCCOc2cc(OC)c(OC)c(OC)c2)cc1
The melting point of the first is higher: 253 to 254 °C for the first, 82 to 83 °C for the second.

First: CSC(SC)=C(C(=O)C(C)(C)C)n1cncn1
Second: CC(C)(C)c1nc(C=C2CCOC2=O)nc(C(C)(C)C)c1O
The melting point of the first is lower: 60 °C for the first, 158 to 160 °C for the second.

First: Cn1c(C(=O)NCCCNC2CCCCC2)ccc1-c1nc(-c2cccc(C(F)(F)F)c2)cs1
Second: Cc1c(Cc2cccc(C(F)(F)F)c2)sc2c(-c3cc(C(=O)NCCO)ccn3)cccc12
The melting point of the first is lower: 120 to 123 °C for the first, 201 to 202 °C for the second.

First: Cc1csc2[nH]cc(C#N)c(=O)c12
Second: CC1(C)Oc2ccsc2C(NC(=O)c2ccc(C#N)cc2)C1O (stereo unspecified)
The melting point of the first is higher: 285 °C for the first, 177 to 178 °C for the second.

First: CCCc1c(OCCCOc2cc(O)c(-c3ccc(F)cc3)cc2CC)cccc1C(=O)c1ccccc1C(=O)O
Second: CS(=O)(=O)c1ccc(-c2nn(Cc3ccncc3)c(=O)cc2-c2ccc(F)cc2)cc1
The melting point of the first is lower: 50 to 52 °C for the first, 253 to 254 °C for the second.

Compared with `CSc1ccc(C=C2CCc3cc(OCCn4ccnc4)ccc3C2=O)cc1`, `Cc1cccc(Nc2cc(Nc3ccc(OCCN(C)C)cc3)ncn2)c1` is higher in melting point: 161 to 162 °C for the first, 219 to 222 °C for the second.

First: Cc1cc(C)cc(P(=O)(c2cc(C)cc(C)c2)c2ccc3ccccc3c2-c2c(P(=O)(c3cc(C)cc(C)c3)c3cc(C)cc(C)c3)ccc3ccccc23)c1
Second: Cc1cc(C)nc(NC(=O)NS(=O)(=O)c2ccccc2S(=O)(=O)N(C)OCc2ccccc2)n1
The melting point of the first is higher: 287 to 290 °C for the first, 186 to 192 °C for the second.

First: ClC1=NC(Cl)(Cl)N=C1Cl
Second: ClCCc1nnc2ccccc2c1Cl
The melting point of the first is higher: 85 to 87 °C for the first, 81 to 82 °C for the second.

First: O=C(NCc1ccc(Br)cc1F)c1ccc(Br)cc1[N+](=O)[O-]
Second: CCOC(=O)c1cc2c(cn1)[nH]c1ccc(Br)cc12
The melting point of the first is lower: 192 to 193 °C for the first, 308 to 313 °C for the second.

First: CCc1cnc(-n2cc(CCCOc3c(CC(=O)O)cccc3OC)c(C(C)C)n2)nc1
Second: COC(=O)CCn1cc(Cc2cccnc2)c2c(CCC(=O)OC(C)(C)C)cccc21
The melting point of the first is higher: 103 to 104 °C for the first, 80 to 82 °C for the second.

Compared with `COc1cc(O)c(C#N)c2cc(-c3ccc(O)cc3)oc12`, `Cc1cc(C)nc(Oc2ccc(-c3ccn(CC4CC4)c(=O)c3C#N)c(F)c2)c1` is lower in melting point: 286 to 288 °C for the first, 137 °C for the second.

First: CCOC(=O)C1=C(N)NC2=C(C(=O)CCC2)C1c1ccccc1N=[N+]=[N-] (stereo unspecified)
Second: CCOC(=O)c1c(O)c2cc(F)ccc2c(=O)n1CC1CC1
The melting point of the first is higher: 209 °C for the first, 61 to 62 °C for the second.

First: Cc1nc2c(O[C@@H]3c4ccccc4C[C@H]3O)cccn2c1C=O (relative stereo)
Second: COc1ccccc1-n1c(=O)[nH]c2c(C(N)=O)nc(-c3cccc(C(F)(F)F)c3)nc21
The melting point of the first is lower: 187 to 192 °C for the first, 271 to 275 °C for the second.

First: CCOCn1c(S(=O)(=O)C(F)(F)C(F)Cl)c(C#N)c2ccccc21 (stereo unspecified)
Second: Cc1c2c(nc3ccccc13)CCN(C(=O)C(F)(F)F)CC2
The melting point of the first is lower: 97 to 100 °C for the first, 147 °C for the second.

Compared with `C#CCC(CC#C)(C(=O)O)S(=O)(=O)c1ccc(OC)cc1`, `COC1CCN(S(=O)(=O)c2ccc(S(N)(=O)=O)cc2)CC1` is lower in melting point: 156 °C for the first, 153 to 154 °C for the second.

Compared with `O=C1CCC2(CN1)C(=O)C(=O)c1ccccc12` (stereo unspecified), `NSc1nc(-c2ccccc2Cl)ns1` is lower in melting point: 227 to 228 °C for the first, 143 to 145 °C for the second.

Compared with `O=c1[nH]c(-c2[nH]c3ccccc3c2Cl)no1`, `CCCC1NC(C(=O)O)Cc2c1[nH]c1ccccc21` (stereo unspecified) is lower in melting point: 240 to 241 °C for the first, 210 to 211 °C for the second.

Compared with `CC(C)(C)OC(=O)N1CCn2c(c(C(N)=O)c(Cl)c2C2CC2)C1`, `C=Cc1ccc2c(c1)CC(CNC(=O)OC(C)(C)C)CC2` (stereo unspecified) is lower in melting point: 102 to 104 °C for the first, 98 to 100 °C for the second.

First: O=S(=O)(C1CC1)C(F)(F)C(O)(Cn1cncn1)c1ccc(F)cc1F (stereo unspecified)
Second: O=C(NCCO)c1cccc(-c2cccc3nn(Cc4cccc(C(F)(F)F)c4)cc23)n1
The melting point of the first is lower: 130 to 132 °C for the first, 150 to 151 °C for the second.

First: CCCCCCCCCCCCCCOc1ccc(C(C)=O)o1
Second: CCCCCCCCCCCCCc1cc(C(=O)OCCC)c[nH]1
The melting point of the first is higher: 70 to 72 °C for the first, 51 to 52 °C for the second.

Compared with `COc1cc(O)c(N2CCN(CCN3CC(C)(C)C3)C2=O)cc1Cl`, `COc1ccc(S(=O)(=O)N2C(=O)C(c3ccccc3O)(N3CCC[C@H]3C(=O)N(C)C)c3cc(Cl)ccc32)c(OC)c1` (stereo partly specified) is higher in melting point: 138 °C for the first, 143 °C for the second.

Compared with `CC1(C)N=C(c2ccccc2F)c2cc(N)ccc2-n2cnnc21`, `Clc1ccc2c(c1)N=C(NCc1cccnc1)c1ccccc1O2` is lower in melting point: 288 °C for the first, 167 to 169 °C for the second.

First: Cc1cc(C2=NOC(c3cc(Cl)cc(Cl)c3)(C(F)(F)F)C2)ccc1C(=O)Nc1ncccn1 (stereo unspecified)
Second: O=C(NOCC(O)CO)c1ccc(F)c(F)c1Nc1ccccc1F (stereo unspecified)
The melting point of the first is higher: 122 to 124 °C for the first, 113 to 115 °C for the second.

First: C[C@H](c1ccccc1)N1C(=O)N[C@@H]2C(=O)OC[C@@H]21
Second: CC(=O)Nc1ccccc1N1CCOCC1
The melting point of the first is lower: 123 to 125 °C for the first, 140 to 141 °C for the second.

Compared with `COc1n[nH]c(=O)n1O`, `CCOC(=O)c1ccc2cnccc2n1` is lower in melting point: 211 °C for the first, 106 to 108 °C for the second.

Compared with `COc1ccc(CC2SC(=O)NC2=O)c2c1N(Cc1ccc([N+](=O)[O-])cc1)C(=O)CC2` (stereo unspecified), `CC1(C)CCC(C)(C)c2cc(-c3cc(-c4ccc(CN)cc4)on3)ccc21` is lower in melting point: 246 to 247 °C for the first, 138 to 143 °C for the second.

First: CCCCCCCCOc1ccc(CCC(N)(CO)CCC)cc1 (stereo unspecified)
Second: CCCCNc1nc(N)nc(NCCCC)n1
The melting point of the first is lower: 43 to 47 °C for the first, 73 °C for the second.

First: Cc1cc(C2CC(C)(C)CC(C)(C)C2=O)ccc1F (stereo unspecified)
Second: CC(=NO)C1CCC2C3CC=C4C(C)(C)C(=O)C(C#N)CC4(C)C3CCC12C (stereo unspecified)
The melting point of the first is lower: 63 to 64 °C for the first, 190 to 192 °C for the second.

Compared with `CCc1cc(C)c(F)c(CC)c1-c1c(O)c(C)nn(C)c1=O`, `CCn1nc(C(=O)OC(C)C)cc(Nc2cncc3ccccc23)c1=O` is lower in melting point: 193 to 195 °C for the first, 192 to 193 °C for the second.

Compared with `CCC(=O)N1CCC(=NO)c2cc(Cl)ccc21`, `NC(=O)c1cc2cc(N3CCNCC3)ccc2o1` is higher in melting point: 166 to 169 °C for the first, 252 to 255 °C for the second.

First: CCOc1nc(SC)nc(N2CCS(=O)CC2)c1C=O
Second: CCN1CC2CCCC2C1=C[N+](=O)[O-] (stereo unspecified)
The melting point of the first is higher: 163 °C for the first, 86 °C for the second.

First: CC(C(N)=O)c1ccc(NS(=O)(=O)C(C)C)cc1 (stereo unspecified)
Second: CCOc1cc(C2c3cccc(C4CC4C(N)=O)c3C(=O)N2CCS(C)(=O)=O)ccc1O (stereo unspecified)
The melting point of the first is lower: 125 to 127 °C for the first, 296 °C for the second.

Compared with `Cc1c(C)c(Br)c2ncccc2c1C`, `CCC12CCC3c4ccc(OC)cc4C(C)CC3C1CCC21OCCO1` (stereo unspecified) is lower in melting point: 180 °C for the first, 130 to 134 °C for the second.

Work on `CC12CCC3c4ccc(O)cc4CC(Sc4ccc(C=CC(=O)O)cc4)C3C1CCC2O` (stereo unspecified) yielded a melting point of 215 to 220 °C.
